Measured values from ChEMBL document CHEMBL1150995, “DNA cleavage by photoexcited diazoarenes” (Bioorg Med Chem Lett, 1997).

How the values were obtained:
[1] = Inhibitory effect of DMSO (0.2 M) on light induced nuclease activity was determined
[2] = Inhibitory effect of cumene (100 uM) on light induced nuclease activity was determined
[3] = Inhibitory effect of 2-Propanol (100 uM) on light induced nuclease activity was determined
[4] = Inhibitory effect of D2O on light induced nuclease activity was determined; conditions: concentration not given here
[5] = Inhibitory effect of Mannitol (100 mM) on light induced nuclease activity was determined
[6] = Inhibitory effect of triphenylphosphine (100 uM) on light induced nuclease activity was determined
[7] = Inhibitory effect of DABCO (0.2 M) on light induced nuclease activity was determined
[8] = Inhibitory effect of SOD (100 ng) on light induced nuclease activity was determined

SMILES | inhibition [1] [%] | inhibition [2] [%] | inhibition [3] [%] | inhibition [4] [%] | inhibition [5] [%] | inhibition [6] [%] | inhibition [7] [%] | inhibition [8] [%]
[N-]=[N+]=c1c2ccccc2oc2ccccc12 | 5 | 58 | 30 | 8 | 3 | 35 | 38 | 8
[N-]=[N+]=C1c2ccccc2C(=O)c2ccccc21 | 12 | 39 | 25 | 10 | 5 | 35 | 30 | 10
